Entries after “also recorded” stand apart in the source; their conditions may differ. No end group written: not given here.
Tests used:
[1] = tested on: multiple sclerosis patients; details: MS patients; cited from earlier work
[2] = tested on: antibody that binds to the oligopeptide in serum samples; assay: ELISA assay of serum antibody that binds to biotinylated oligopeptides immobilised on streptavidin plates; assay type: binding, human; details: pH 7.4, female subjects, FIG. 2
Source text: Six exemplary oligopeptides of the invention (each 17 amino-acids long, with biotinylated N-terminus) were used to prepare ELISA assays for studying antibody levels in patient samples. The oligopeptides were synthesised by K J Ross-Petersen ApS (Copenhagen, Denmark) and provided in lyophilized form. General serum diluent was purchased from Immunochemistry Technologies LLC (Minnesota, USA). Streptavidin coated 96-Well microplates were purchased from Eagle Biosciences (New Hampshire, USA) and the oligopeptides were applied to individual wells of the streptavidin plates as described below.
Sample preparation: Following obtaining informed consent, a 5 ml venous blood sample was withdrawn from each individual participating in this study. Samples were centrifuged for 10 minutes at 3000 RPM. Serum was then transferred into a clean plastic vial and the remainder was discarded. Serum was then diluted in general serum diluent (200 μl/mL), labelled accordingly and stored at −20° C. […]
ELISA protocol: Typical ELISA protocol was followed for quantifying antibodies present in serum. […] The plate was shaken for 5 seconds at 250 RPM and absorbance was measured using plate reader at wavelength 450 nm and 630 nm filter. Elisys Uno fully automated ELISA analyser (HUMAN company, Wiesbaden, Germany) was used to read the measurements. […]

C57BL/6 mice [3] = assay: Disease induction with antigen and adjuvant in combination with Pertussis toxin; assay type: in vivo, mouse; details: for severity of muscle weakness compared between antigens / grade of plaques compared to control animals: mice; for grade of plaques compared to control animals: mid brain section, antigen + adjuvant + pertussis, FIG. 8
Experimental: (§1) Male (n=16) and female (n=16) C57BL/6 mice, weighing between 16-18 g, were purchased from Royan institute (Tehran, Iran). MS induction study started when mice reached 6-8 weeks of age. Similar investigations were carried chick and guinea pig (data not shown). All procedures were performed aseptically and under supervision of Gandhi Hospital medical ethics committee (Tehran, Iran). Freund's complete adjuvant and Pertussis toxin purchased from Sigma-Aldrich (Dorset, UK).
At day 1 and day 2, 250 μg of antigen (oligopeptides of the invention) diluted in 150 μl of saline combined with 150 μl of adjuvant was injected intra-dermally into alcohol wiped back of each mouse. Following the injection of antigens, 400 ng Pertussis toxin diluted in 300 μl distilled water was injected intraperitoneally. Two control groups received either 150 μl distilled water in 150 μl of adjuvant or 400 ng Pertussis toxin diluted in 300 μl distilled water. The animals were kept in standard housing condition with appropriate temperature and humidity as well as adequate supplies of food and fresh water.
(§2) After scarifying mice by anaesthesia overdose at day 15 of injection, their brain was dissected out and fixed in 10% Formalin for histological analysis. The fixed samples were subsequently cut horizontally and processed to produce 5-micron thin paraffin sections, which then were stained with Haematoxylin and eosin (H&E), Glial fibrillary acidic protein (GFAP), CD-68 and Luxol fast blue (LFB). Various sections of the brain were then analyzed and imaged using a bright-field microscope (Optika B-383PL, Bergamo, Italy). Grade of plaque formation was defined as number of plaques measured in mid brain section as follow: […]
The effect of injected oligopeptide antigens of the invention on muscular function was tested by measuring animal fall time from inverted cage and ring. These tests follow the format of commonly used functional muscle evaluation tests in mice that use “wire hanging” behavioral tests wherein latency to fall after being suspended from a substrate is quantified to give a measure of muscular function.

chicks = assay: MS induction in chicks with antigens combined with pertussis and adjuvant; assay type: in vivo, chick; details: 1 mg antigen per 70 g body weight
Experimental: As a preliminary examination of our proposed treatment method, we induced MS in chicks by injecting antigens P, F, E and A (corresponding to SEQ ID NOs: 20, 21, 22 and 23) combined with pertussis and adjuvant. The dosage was 1 mg antigen per 70 g body weight. The main reason we chose this animal was to be able to easily visualize the walking impairment as they are bipedal like humans (compared to quadrupedal rodents). Initial symptoms were seen 12 days after antigen injection.

C57BL/6 mice [4] = assay: Disease induction with antigen and adjuvant without Pertussis toxin; assay type: in vivo, mouse; details: for grade of plaque formation: mid brain section, day 15, without Pertussis, FIG. 12
Experimental: as §1
C57BL/6 mice were injected with adjuvant and antigens (oligopeptides of the invention) at day 0 and 5. Control group received the injection of only adjuvant in distilled water.
as §2

[5] = fall from inverted cage and ring

Substance | grade of plaques compared to control animals (C57BL/6 mice [3]) | balance compared to controls (chicks) | time to initial symptoms after antigen injection (chicks) [days] | weight compared to controls (chicks) | other results
Glatiramer acetate [Copaxone] |  |  |  |  | fewer relapses than patients taking placebo [1]: about 30%
MPRTQENAHSLERCWL [antigen H, MPRTQENAHSLERCWL] |  |  |  |  | differences between healthy female patients (HF) and female patients with MS (FMS) in the levels of antibody that bind to the oligopeptide [2]: significant for each exemplary oligopeptide besides H and S
RDSANIYHADSLKGRFT (Oligopeptide motif) [antigen A] | significantly higher | lack of balance | 12 | Significant weight loss | severity of muscle weakness compared between antigens (C57BL/6 mice [3]; [5]): less than those injected with oligopeptide antigen P; also recorded: considerably less effect than oligopeptide antigens E and F
RGSRGQHQAHSLERVCH (Oligopeptide motif) [antigen P] |  | lack of balance | 12 | Significant weight loss | severity of muscle weakness compared between antigens (C57BL/6 mice [3]; [5]): considerably less effect than oligopeptide antigens E and F
RHSDEHHHDDSLPHPQQ (Oligopeptide motif) [antigen E] | significantly higher | lack of balance | 12 | Significant weight loss | muscle weakness in female mice (C57BL/6 mice [3]; female mice, fall from inverted cage and ring): most pronounced muscle weakness; grade of plaque formation (C57BL/6 mice [4]; female mice): 9 (24-27); induction of MS in females (C57BL/6 mice [4]; females): major inducer of MS in females
RLTLSPEQAHSLILQHL [antigen S, RLTLSPEQAHSLILQHL] |  |  |  |  | differences between healthy female patients (HF) and female patients with MS (FMS) in the levels of antibody that bind to the oligopeptide [2]: significant for each exemplary oligopeptide besides H and S
RVPGCAHHADSLYTYPV (Oligopeptide motif) [antigen F] | significantly higher | lack of balance | 12 | Significant weight loss | muscle weakness in male mice (C57BL/6 mice [3]; male mice, fall from inverted cage and ring): most pronounced muscle weakness; grade of plaque formation (C57BL/6 mice [4]; male mice): 7 (18-21); induction of MS in males (C57BL/6 mice [4]; males): major inducer of MS in males

— patent US11435345B2, “Detection and treatment of demyelinating diseases” (MATN SCIENTIFIC LIMITED, priority 2016, dated 2022)
